Results reported in PubChem BioAssay (NCI).
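Test compounds were applied to cells in 96-well plates for 48 hours at 5 doses. At the GI50, growth is halved. At the TGI there is no net growth.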

Key:
Assay in all cases: growth of human tumour cells (NCI), 48 h
[1] = tested on: HOP-92 NSCLC
[2] = tested on: NCI-H460 lung
[3] = tested on: SK-OV-3 ovarian
[4] = tested on: HCC-2998 colon
[5] = tested on: UACC-62 melanoma
[6] = tested on: SF-295 CNS
[7] = tested on: SR leukemia
[8] = tested on: NCI-H226 lung
[9] = tested on: MCF7 breast
[10] = tested on: CCRF-CEM leukemia
[11] = tested on: SK-MEL-2 melanoma
[12] = tested on: RXF 393 renal
[13] = tested on: LOX IMVI melanoma
[14] = tested on: HCT-15 colon
[15] = tested on: UACC-257 melanoma
[16] = tested on: TK-10 renal
[17] = tested on: COLO 205 colon
[18] = tested on: ACHN renal
[19] = tested on: HT29 colon
[20] = tested on: EKVX NSCLC
[21] = tested on: OVCAR-3 ovarian
[22] = tested on: BT-549 breast
[23] = tested on: OVCAR-8 ovarian
[24] = tested on: SF-539 CNS
[25] = tested on: PC-3 prostate
[26] = tested on: 786-0 renal
[27] = tested on: U251 CNS
[28] = tested on: CAKI-1 renal
[29] = tested on: NCI-H522 lung
[30] = tested on: OVCAR-5 ovarian
[31] = tested on: OVCAR-4 ovarian
[32] = tested on: HCT-116 colon
[33] = tested on: MDA-MB-231 breast
[34] = tested on: KM12 colon
[35] = tested on: T-47D breast
[36] = tested on: MDA-MB-435
[37] = tested on: DU-145 prostate
[38] = tested on: UO-31 renal
[39] = tested on: A498 renal
[40] = tested on: MALME-3M melanoma
[41] = tested on: HOP-62 NSCLC
[42] = tested on: RPMI-8226 leukemia
[43] = tested on: IGROV1 ovarian
[44] = tested on: A549 NSCLC
[45] = tested on: SN12C renal
[46] = tested on: SK-MEL-5 melanoma
[47] = tested on: M14 melanoma
[48] = tested on: SNB-19 CNS
[49] = tested on: HS 578T breast
[50] = tested on: SNB-75 CNS
[51] = tested on: SF-268 CNS
[52] = tested on: SK-MEL-28 melanoma
[53] = tested on: NCI/ADR-RES ovarian

Structure (SMILES): CC(C)(O)c1cncc(-c2ccc3ncnc(N4CCc5cc(F)c(Cl)cc54)c3c2)c1
- GI50 [1]: 151 nM
- TGI [1]: 827 nM
- GI50 [2]: 1330 nM
- TGI [2]: > 100000 nM
- GI50 [3]: 649 nM
- TGI [3]: 12200 nM
- GI50 [4]: 2360 nM
- TGI [4]: > 100000 nM
- GI50 [5]: 543 nM
- TGI [5]: > 100000 nM
- GI50 [6]: 1140 nM
- TGI [6]: 23100 nM
- GI50 [7]: 1520 nM
- TGI [7]: > 100000 nM
- GI50 [8]: 3460 nM
- TGI [8]: > 100000 nM
- GI50 [9]: 349 nM
- TGI [9]: > 100000 nM
- GI50 [10]: 2320 nM
- TGI [10]: > 100000 nM
- GI50 [11]: 4890 nM
- TGI [11]: 66600 nM
- GI50 [12]: 432 nM
- TGI [12]: 3070 nM
- TGI [13]: 65100 nM
- GI50 [14]: 1110 nM
- TGI [14]: > 100000 nM
- GI50 [15]: 3960 nM
- TGI [15]: > 100000 nM
- GI50 [16]: 417 nM
- TGI [16]: > 100000 nM
- GI50 [17]: 3520 nM
- TGI [17]: > 100000 nM
- GI50 [18]: 572 nM
- TGI [18]: > 100000 nM
- GI50 [19]: 908 nM
- TGI [19]: > 100000 nM
- GI50 [20]: 520 nM
- TGI [20]: 9120 nM
- GI50 [21]: 2270 nM
- TGI [21]: > 100000 nM
- GI50 [22]: 1220 nM
- TGI [22]: 8890 nM
- GI50 [23]: 2590 nM
- TGI [23]: > 100000 nM
- GI50 [24]: 1960 nM
- TGI [24]: 84500 nM
- GI50 [25]: 775 nM
- TGI [25]: > 100000 nM
- GI50 [26]: 722 nM
- TGI [26]: 75400 nM
- GI50 [27]: 6750 nM
- TGI [27]: > 100000 nM
- GI50 [28]: 388 nM
- TGI [28]: > 100000 nM
- GI50 [29]: 1870 nM
- TGI [29]: 85200 nM
- GI50 [30]: 1170 nM
- TGI [30]: > 100000 nM
- GI50 [31]: 1350 nM
- TGI [31]: > 100000 nM
- GI50 [32]: 2350 nM
- TGI [32]: > 100000 nM
- GI50 [33]: 1500 nM
- TGI [33]: > 100000 nM
- GI50 [34]: 5860 nM
- TGI [34]: > 100000 nM
- GI50 [35]: 236 nM
- TGI [35]: 4080 nM
- GI50 [36]: 2630 nM
- TGI [36]: > 100000 nM
- GI50 [37]: 1490 nM
- TGI [37]: > 100000 nM
- GI50 [38]: 184 nM
- TGI [38]: 74200 nM
- GI50 [39]: 197 nM
- TGI [39]: 1170 nM
- GI50 [40]: 1520 nM
- TGI [40]: > 100000 nM
- GI50 [41]: 1190 nM
- TGI [41]: > 100000 nM
- GI50 [42]: 1990 nM
- TGI [42]: > 100000 nM
- GI50 [43]: 235 nM
- TGI [43]: 1300 nM
- GI50 [44]: 773 nM
- TGI [44]: > 100000 nM
- GI50 [45]: 749 nM
- TGI [45]: > 100000 nM
- GI50 [46]: 2940 nM
- TGI [46]: > 100000 nM
- GI50 [47]: 4890 nM
- TGI [47]: > 100000 nM
- GI50 [48]: 2510 nM
- TGI [48]: > 100000 nM
- GI50 [49]: 754 nM
- TGI [49]: 11700 nM
- GI50 [50]: 407 nM
- TGI [50]: 15200 nM
- GI50 [51]: 3220 nM
- TGI [51]: > 100000 nM
- GI50 [52]: 2980 nM
- TGI [52]: > 100000 nM
- GI50 [53]: 1590 nM
- TGI [53]: > 100000 nM
